Among the data in patent US5177069A, “Naphthysulfonylalkanoic acid compounds and pharmaceutical compositions thereof” (Kissei Pharmaceutical Co., Ltd., priority 1989, dated 1993) are IC50 and ED50 values, retold here.

In test [1] the target is T1, CCK-receptor (Rattus norvegicus, UniProt P30551).
T1 construct: Pancreatic plasma membranes were prepared by the method of Chang et al; from tissue; host or cells: pancreas of male Wistar rats (pancreatic plasma membranes)
T1 sequence (P30551 1-444): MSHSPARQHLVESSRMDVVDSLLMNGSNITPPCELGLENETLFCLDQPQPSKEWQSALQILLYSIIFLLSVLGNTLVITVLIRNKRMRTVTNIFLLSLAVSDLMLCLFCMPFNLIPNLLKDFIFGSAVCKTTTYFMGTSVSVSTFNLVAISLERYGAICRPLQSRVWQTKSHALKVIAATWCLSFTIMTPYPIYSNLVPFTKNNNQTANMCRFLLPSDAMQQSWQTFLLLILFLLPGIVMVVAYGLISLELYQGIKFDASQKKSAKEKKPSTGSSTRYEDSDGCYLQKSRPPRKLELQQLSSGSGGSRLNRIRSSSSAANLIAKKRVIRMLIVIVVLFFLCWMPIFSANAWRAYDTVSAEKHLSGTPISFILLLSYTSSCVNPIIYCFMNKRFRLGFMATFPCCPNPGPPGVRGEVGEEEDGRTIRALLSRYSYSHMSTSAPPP
Kind of test: CCK-receptor binding assay in pancreas (125I-CCK-8, pancreatic plasma membranes). Also on record: species or system Male Wistar rats. As to conditions: 30 pM 125I-CCK-8, rat pancreatic plasma membranes, 37° C., 30 minutes; inhibition of specific binding. On the procedure:
CCK-receptor binding assay in pancreas
Pancreatic plasma membranes were prepared by the method of Chang et al. (Molecular Pharmacology, Vol. 30, p. 212-, 1986). Male Wistar rats were sacrificed by decapitation and the pancreas was removed. The pancreas was dissected free from adipose tissue and minced in 50 volumes ice-cold Tris-HCl buffer (50 mM, pH 7.4 at 37° C.). Homogenization was performed using ultra disperser and the homogenate was centrifuged at 50,000×g for 10 minutes. The pellet was washed by resuspension in the same volume of fresh Tris-HCl buffer and again centrifuged as above. The final pellet was suspended in assay buffer (50 mM Tris-HCl, 5 mM MgCl2, 5 mM dithiothreitol, 2 mg/ml of bovine serum albumin, and 0.14 mg/ml of bacitracin), and used as receptor sources for binding assay.
Thirty pM ^125 I-CCK-8 (final concentration), test drug or vehicle (for total binding) or 10^-6 M CCK-8 (for nonspecific binding) were added to the assay medium containing pancreatic plasma membranes (0.5 mg of original wet weight/ml). After incubation at 37° C. for 30 minutes, the assay medium was filtrated under reduced pressure through glass fiber filter and washed four times with 4 ml of ice-cold Tris-HCl buffer. The radioactivity trapped on the filter was counted by γ-counter (Packard 5650).
Specific binding was defined as the radioactivity bound after subtracting nonspecific binding determined in the presense of 10^-6 M unlabeled CCK-8. IC50 value was calculated from inhibition percentage of specific binding by each test drug.

The subject of test [2] is isolated gallbladder. In words: CCK-antagonism in isolated gallbladder (contraction induced by CCK-8). It counts as cell-based, male Hartley guinea-pig. As to conditions: Cavia porcellus; guinea-pig gallbladder strips, Krebs solution 37° C.; contraction induced by 10^-8 M CCK-8. On the procedure:
CCK-antagonism in isolated gallbladder
Gallbladder strips isolated from male Hartley guinea-pig were prepared and suspended in Magnus bath filled with Krebs solution (1 g of initial tension). The solution kept at 37° C. was aerated with a mixture of 95% O2 and 5% CO2. The isometric contraction of strips was recorded through a force-displacement transducer. Antagonism by test drugs against gallbladder contraction induced by 10^-8 M CCK-8 was examined and IC50 value was calculated.

The test system of test [3] is amylase secretion. Kind of test: Effect on amylase secretion in rats (stimulated by CCK-8). It counts as in vivo, Male Wistar rats. Conditions: Rattus norvegicus; intraduodenal, 30 minutes before subcutaneous CCK-8 (10 μg/kg); urethane-anesthetized rats. As for the experimental part: Effect on amylase secretion in rats
Male Wistar rats were anesthetized with urethane (1.5 g/kg, S.C.), and tracheal cannula was inserted. Biliopancreatic juice was collected from the cannula which had been inserted into the common bile duct. Thirty minutes after intraduodenal administration of test drug, amylase secretion was stimulated by subcutaneous injection of CCK-8 (10 μg/kg). Amylase concentration in the sample collected every 30 minutes during experiment was assayed using Amylase B Test (Wako), and ED50 value was calculated.

`CCCCCN(CCCOC)C(=O)C(CCC(=O)O)CS(=O)(=O)c1ccc2ccccc2c1` (stereo not shown) [Compound No. 18, 4-[N-(3-Methoxypropyl)-N-pentylcarbamoyl]-5-(2-naphthylsulfonyl)pentanoic acid]: the results for the IC50 in test [1] and in test [2] were 0.34 µM and 6.8 µM, respectively. Moreover, the ED50 – broadly, the dose at which the effect has come halfway, by size or by number of responders – in test [3] was determined as 15.7 mg/kg.

As for `CCCCCN(CC(=O)N(C(C)C)C(C)C)C(=O)C(CCC(=O)O)CS(=O)(=O)c1ccc2ccccc2c1` (stereo not shown) [compound 29], the concentration for half-maximal inhibition (IC50) – broadly, the point on the concentration scale where inhibition reaches its midpoint – in test [1] worked out at 2.3 µM.

On to `CCCCCN(CCCOC)C(=O)C(CCC(=O)O)CS(=O)(=O)c1ccc2ccccc2c1` (single isomer, unassigned) [compound 23], for which the IC50 in test [1] is 3.3 µM.

`CCCCCN(CC(=O)OC(C)(C)C)C(=O)C(CCC(=O)O)CS(=O)(=O)c1ccc2ccccc2c1` (stereo not shown) [compound 25] yielded an IC50 in test [1] of 0.049 µM. In test [3], the ED50 was found to be 8 mg/kg.

As for `CCCCCN(CC(=O)OCC)C(=O)C(CCC(=O)OC)CS(=O)(=O)c1ccc2ccccc2c1` (racemic) [compound 7, methyl 4-(N-ethoxycarbonylmethyl-N-pentylcarbamoyl)-5-(2-naphthylsulfonyl)pentanoate], the half-maximal inhibitory concentration (IC50) in test [1] turned out to be 1.7 µM.

`CCCCCN(CCC(=O)OCC)C(=O)C(CCC(=O)O)CS(=O)(=O)c1ccc2ccccc2c1` (stereo not shown) [compound 21]: the half-maximal inhibitory concentration (IC50) in test [1] turned out to be 0.4 µM; in test [2] it was 2.9 µM.

With `COC(=O)CCC(CS(=O)(=O)c1ccc2ccccc2c1)C(=O)N(CCC1CCCCC1)CCC1CCCCC1` (stereo not shown) [Compound No. 34, Methyl 4-[N,N-bis(2-cyclohexylethyl)carbamoyl]-5-(2-naphthylsulfonyl)pentanoate], the IC50 in test [1] came to 1.7 µM.

For the compound `CCOC(=O)CN(CCCOC)C(=O)C(CCC(=O)OCc1ccccc1)CS(=O)(=O)c1ccc2ccccc2c1` (stereo not shown) [compound 38], in test [1], the IC50 came to 0.11 µM.

In the case of `CCCCCN(CC(=O)N(C)C)C(=O)C(CCC(=O)O)CS(=O)(=O)c1ccc2ccccc2c1` (stereo not shown) [compound 27], the IC50 in test [1] was 2.2 µM.

The compound `CCOC(=O)CN(CC(=O)OCC)C(=O)C(CCC(=O)OCc1ccccc1)CS(=O)(=O)c1ccc2ccccc2c1` (stereo not shown) [compound 36, benzyl 4-[N,N-bis(ethoxycarbonylmethyl)carbamoyl]-5-(2-naphthylsulfonyl)pentanoate] returned an IC50 in test [1] of 6.5 µM.

`CCCCCN(CC(=O)O)C(=O)C(CCC(=O)OC)CS(=O)(=O)c1ccc2ccccc2c1` (stereo not shown) [Compound No. 15, N-[2-(2-Methoxycarbonylethyl)-3-(2-naphthylsulfonyl)propionyl]-N-pentylglycine] returned an IC50 in test [1] of 7.3 µM.

In turn, `CCOC(=O)CN(CC(=O)OCC)C(=O)C(CCC(=O)O)CS(=O)(=O)c1ccc2ccccc2c1` (stereo not shown) [compound 40, 4-[N,N-Bis(ethoxycarbonylmethyl)carbamoyl]-5-(2-naphthylsulfonyl)pentanoic acid] returned an IC50 in test [1] of 2.1 µM.

`CCCCCN(CC(=O)OCC)C(=O)C(CCC(=O)OCc1ccccc1)CS(=O)(=O)c1ccc2ccccc2c1` (racemic) [compound 6, benzyl 4-(N-ethoxycarbonylmethyl-N-pentylcarbamoyl)-5-(2-naphthylsulfonyl)pentanoate] had an IC50 in test [1] of 1.7 µM.

With `CCCCCN(CCOC(=O)C(C)(C)C)C(=O)C(CCC(=O)O)CS(=O)(=O)c1ccc2ccccc2c1` (stereo not shown) [compound 52], in test [1], the IC50 was determined as 0.19 µM.

In turn, `CCCCCN(CC(=O)N1CCOCC1)C(=O)C(CCC(=O)O)CS(=O)(=O)c1ccc2ccccc2c1` (stereo not shown) [compound 54] yielded an IC50 in test [1] of 0.61 µM.

Regarding `CCCCCN(CCCOC)C(=O)C(CCC(=O)O)CS(=O)(=O)c1ccc2ccccc2c1` (single isomer, unassigned; (-)) [compound 22, (-)-4-[N-(3-methoxypropyl)-N-pentylcarbamoyl]-5-(2-naphthylsulfonyl)pentanoic acid], the IC50 in test [1] amounted to 0.12 µM; in test [2] it was 2.8 µM.

Consider `CCCCCN(CC(=O)NC(C)C)C(=O)C(CCC(=O)O)CS(=O)(=O)c1ccc2ccccc2c1` (stereo not shown) [compound 30], for which the IC50 in test [1] is 4.1 µM.

Turning to `CCCCCN(CCCCC)C(=O)C(CC(=O)O)CS(=O)(=O)c1ccc2ccccc2c1` (stereo not shown) [compound 32], the IC50 in test [1] came out at 0.29 µM.

In the case of `C=CCOCCN(CCOCC=C)C(=O)C(CCC(=O)O)CS(=O)(=O)c1ccc2ccccc2c1` (stereo not shown) [compound 41], in test [1], the IC50 turned out to be 1.4 µM.

In test [1], `CCCCCN(CC(=O)O)C(=O)C(CCC(=O)O)CS(=O)(=O)c1ccc2ccccc2c1` (stereo not shown) [compound 33] came in with an IC50 of 3.4 µM.

`CCCCCN(CCCOC)C(=O)C(CCC(=O)OC)CS(=O)(=O)c1ccc2ccccc2c1` (racemic) [Compound No. 3, methyl 4-[N-(3-methoxypropyl)-N-pentylcarbamoyl]-5-(2-naphthylsulfonyl)pentanoate] registered an IC50 in test [1] of 2.4 µM.

Consider `CCCCCN(CC(=O)N1CCCC1)C(=O)C(CCC(=O)O)CS(=O)(=O)c1ccc2ccccc2c1` (stereo not shown) [compound 55], for which the IC50 in test [1] was 0.9 µM.

For `CCCCCN(CCCCC)C(=O)C(CCC(=O)O)CS(=O)(=O)c1ccc2ccccc2c1` (stereo not shown) [compound 20], the figures for the IC50 in test [1] and in test [2] were 0.029 µM and 2.6 µM, respectively. The 50% effect level in test [3] (ED50) was put at a dose of 9.6 mg/kg.

With `CCCCCN(CC(=O)OC(C)(C)C)C(=O)C(CCC(=O)O)CS(=O)(=O)c1ccc2ccccc2c1` (single isomer, unassigned) [compound 26], the IC50 in test [1] was 0.025 µM.

In test [1], `C=CCOCCN(CCOCC=C)C(=O)C(CCC(=O)OC)CS(=O)(=O)c1ccc2ccccc2c1` (stereo not shown) [compound 37] showed an IC50 of 3.1 µM.

Consider `CCCCCN(CCOC(C)=O)C(=O)C(CCC(=O)O)CS(=O)(=O)c1ccc2ccccc2c1` (stereo not shown) [Compound No. 50, 4-[N-(2-Acetoxyethyl)-N-pentylcarbamoyl]-5-(2-naphtylsulfonyl)pentanoic acid], for which the IC50 in test [1] came out at 0.2 µM.

Compound `CCCCCN(CC(=O)N1CCCCC1)C(=O)C(CCC(=O)O)CS(=O)(=O)c1ccc2ccccc2c1` (stereo not shown) [Compound No. 51, 5-(2-Naphthylsulfonyl)-4-(N-pentyl-N-piperidinocarbonylmethylcarbamoyl)pentanoic acid] returned a half-maximal inhibitory concentration (IC50) in test [1] of 0.4 µM.

On to `O=C(O)CCC(CS(=O)(=O)c1ccc2ccccc2c1)C(=O)N(CCC1CCCCC1)CCC1CCCCC1` (stereo not shown) [Compound No. 39, 4-[N,N-Bis(2-cyclohexylethyl)carbamoyl]-5-(2-naphthylsulfonyl)pentanoic acid], for which the IC50 in test [1] came to 1.8 µM.

Consider `CCCCCN(CCCN1CCCC1=O)C(=O)C(CCC(=O)O)CS(=O)(=O)c1ccc2ccccc2c1` (stereo not shown) [compound 53], for which the IC50 in test [1] stood at 0.22 µM.

Compound `CCCCCN(CC(=O)NC1CCCCC1)C(=O)C(CCC(=O)O)CS(=O)(=O)c1ccc2ccccc2c1` (stereo not shown) [compound 31] registered a 50% inhibitory concentration (IC50) in test [1] of 2 µM.

As to `CCCCCN(CC(=O)OC(C)C)C(=O)C(CCC(=O)O)CS(=O)(=O)c1ccc2ccccc2c1` (stereo not shown) [compound 24], in test [1], the IC50 was determined as 0.044 µM.

As to `CCCCCN(CC(=O)OCC)C(=O)C(CCC(=O)O)CS(=O)(=O)c1ccc2ccccc2c1` (stereo not shown) [Compound No. 19, 4-(N-Ethoxycarbonylmethyl-N-pentylcarbamoyl)-5-(2-naphthylsulfonyl)pentanoic acid], the IC50 in test [1] is 0.32 µM; in test [2] it was 2.1 µM. In test [3], this compound yielded an ED50 of 33.3 mg/kg.

`CC(=O)OCCN(CCOC(C)=O)C(=O)C(CCC(=O)OCc1ccccc1)CS(=O)(=O)c1ccc2ccccc2c1` (stereo not shown) [compound 35]: in test [1], the IC50 was found to be 4 µM.

In turn, `CCCCCN(CC(=O)N(CC)CC)C(=O)C(CCC(=O)O)CS(=O)(=O)c1ccc2ccccc2c1` (stereo not shown) [compound 28] showed an IC50 in test [1] of 0.21 µM.
